From patent US12628857B2, “Compositions comprising human milk oligosaccharides for use in a subject to support night sleep duration” (SOCIETE DES PRODUITS NESTLE S.A., priority 2020, dated 2026)

Legend:
breast-fed children [1] = experiment: Association of breast milk HMO levels with BISQ sleep parameters, LIFE Child cohort; assay type: in vivo, human; conditions: 3 months of age
Description: (§1) The “BISQ” questionnaire is the brief infant sleep questionnaire, this questionnaire has been developed to screen sleep problems in infants and young children. This questionnaire has also been commonly used in sleep research to quantify quantity and quality of sleep as well as sleep maturation (Sadeh A. “Sleep assessment method” Monographs Soc Res Child Dev 80(1) 2015).
(§2) In the framework of the BISQ questionnaire one or more parameters are observed and recorded that are selected in the group consisting of: nocturnal sleep duration (between the hours of 7 pm and 7 am); daytime sleep duration (between the hours of 7 am and 7 pm); number of night awaking; duration of wakefulness during the night hours (10 pm to 6 am); nocturnal sleep-onset time (the clock time at which the child falls asleep for the night); settling time (latency to falling asleep for the night); method of falling asleep; location of sleep; and preferred body position. […]
A subset of typically developing children enrolled in the LIFE Child cohort aged between 0-12 months who were breast-fed at the time of visit were included in this study. and consists of breast milk samples—collected in mothers at 3, 6 and 12 months after child's birth—and questionnaires—collected during pregnancy and the first year of the child's life—containing information about children sleep and some related confounding factors. the analysis was conducted on 153 subjects at 3 months, 113 subjects at 6 months and 27 subjects at 12 months. The collected BMs were analyzed for HMOs, including 2′-Fucosyllactose (2FL), 3′-Fucosyllactose (3FL), 3′-Sialyllactose (3SL), 6′-Sialyllactose (6SL), Lacto-N-tetraose (LNT), Lacto-N-neotetraose (LNnT), Lacto-N-fucopentaose I (LNFP1), and A-Tetrasaccharide. The association between sleep parameters generated using the BISQ and breast milk HMO levels were evaluated using logistic regression models. […] Both LNT and total core-HMO correlated with total night sleep time assessed by the BISQ (p<0.05, FIGS. 3 and 4 respectively).

breast-fed children [2] = experiment: Correlation of breast milk HMO levels with sleep duration (BISQ), BCP-Enriched cohort; assay type: in vivo, human; conditions: FIG. 1
Description: as §1, §2
A subset of typically developing children (n=92) enrolled in the BCP cohort aged between 0-20 months who were breast-fed at the time of visit were included in this study. […] The collected BMs were analyzed for HMOs, including 2′-Fucosyllactose (2FL), 3′-Fucosyllactose (3FL), 3′-Sialyllactose (3SL), 6′-Sialyllactose (6SL), Lacto-N-tetraose (LNT), Lacto-N-neotetraose (LNnT), Lacto-N-fucopentaose I (LNFP1), and A-Tetrasaccharide. […]

Structure (SMILES) | Correlation of total night time sleep with breast milk levels (breast-fed children [1]; BISQ, p<0.05, FIGS. 3 and 4) | Dependence of the night sleep association on the method to go to sleep (need of rocking) (breast-fed children [1]; FIG. 3) | Correlation of total sleep time with breast milk levels (breast-fed children [1]; p<0.05, FIG. 2) | Correlation of total night-time sleep time with breast milk levels (breast-fed children [2]; BCP-Enriched, n=92, infant aged more than 11 months, p=0.05) | Correlation of total night time sleep with breast milk levels (breast-fed children [2]; BCP-enriched cohort, age >10 months, p<0.05)
CC(=O)N[C@H]1[C@H](O[C@H]2[C@@H](O)[C@@H](CO)O[C@@H](O[C@H]3[C@H](O)[C@@H](O)C(O)O[C@@H]3CO)[C@@H]2O)O[C@H](CO)[C@@H](O)[C@@H]1O[C@@H]1O[C@H](CO)[C@H](O)[C@H](O)[C@H]1O (some centres unmarked) [LNT, Lacto-N-tetraose] | significantly correlated | independent of the method to go to sleep | significantly correlated | – | –
CC(=O)N[C@H]1[C@H]([C@H](O)[C@H](O)CO)O[C@@](O[C@H]2[C@@H](O)[C@@H](CO)O[C@@H](O[C@H]3[C@H](O)[C@@H](O)C(O)O[C@@H]3CO)[C@@H]2O)(C(=O)O)C[C@@H]1O (stereo partly drawn) [3SL, (6R)-5-Acetamido-3,5-dideoxy-6-[(1R,2R)-1,2,3-trihydroxypropyl]-β-L-threo-hex-2-ulopyranonosyl-(2→3)-β-D-galactopyranosyl-(1→4)-D-glucopyranose] | – | – | – | correlate positively | significantly correlated
